ChEMBL document CHEMBL1938343, “Lead optimisation of selective non-zinc binding inhibitors of MMP13. Part 2” (Bioorg Med Chem Lett, 2012)
Values after ≈ are worked out from the molar mass of the structure shown.

What was measured:
[1] = molecular target: 72 kDa type IV collagenase (Homo sapiens, UniProt P08253); assay: Inhibition of MMP2 using Mca-Pro-cyclohexyl-Ala-Gly-Nva-His-Ala- Dap(Dnp)-NH2 as substrate by fluorometric analysis; conditions: read-out: pIC50 (converted)
[2] = Intrinsic clearance in human microsomes; assay type: ADME, Microsome
Rattus norvegicus = assay: (§1) Oral bioavailability in rat; assay type: ADME, organism-based; conditions: in vivo
[3] = Thermodynamic solubility of the compound; conditions: Therm_solubility
Collagenase 3 = Collagenase 3 (Homo sapiens, UniProt P45452); assay: Inhibition of recombinant human MMP13 using Mca-Pro-cyclohexyl-Ala-Gly-Nva-His-Ala- Dap(Dnp)-NH2 as substrate by fluorometric analysis; conditions: read-out: pIC50 (converted)
[4] = Intrinsic clearance in Sprague-Dawley rat hepatocytes assessed per 10^6 cells; assay type: ADME, cell-based, Hepatocyte; conditions: Sprague-Dawley, read-out: CLH
[5] = molecular target: Matrix metalloproteinase-9 (Homo sapiens, UniProt P14780); assay: Inhibition of MMP9 using Mca-Pro-cyclohexyl-Ala-Gly-Nva-His-Ala- Dap(Dnp)-NH2 as substrate by fluorometric analysis
Matrix metalloproteinase-9, sequence (P14780 whole entry): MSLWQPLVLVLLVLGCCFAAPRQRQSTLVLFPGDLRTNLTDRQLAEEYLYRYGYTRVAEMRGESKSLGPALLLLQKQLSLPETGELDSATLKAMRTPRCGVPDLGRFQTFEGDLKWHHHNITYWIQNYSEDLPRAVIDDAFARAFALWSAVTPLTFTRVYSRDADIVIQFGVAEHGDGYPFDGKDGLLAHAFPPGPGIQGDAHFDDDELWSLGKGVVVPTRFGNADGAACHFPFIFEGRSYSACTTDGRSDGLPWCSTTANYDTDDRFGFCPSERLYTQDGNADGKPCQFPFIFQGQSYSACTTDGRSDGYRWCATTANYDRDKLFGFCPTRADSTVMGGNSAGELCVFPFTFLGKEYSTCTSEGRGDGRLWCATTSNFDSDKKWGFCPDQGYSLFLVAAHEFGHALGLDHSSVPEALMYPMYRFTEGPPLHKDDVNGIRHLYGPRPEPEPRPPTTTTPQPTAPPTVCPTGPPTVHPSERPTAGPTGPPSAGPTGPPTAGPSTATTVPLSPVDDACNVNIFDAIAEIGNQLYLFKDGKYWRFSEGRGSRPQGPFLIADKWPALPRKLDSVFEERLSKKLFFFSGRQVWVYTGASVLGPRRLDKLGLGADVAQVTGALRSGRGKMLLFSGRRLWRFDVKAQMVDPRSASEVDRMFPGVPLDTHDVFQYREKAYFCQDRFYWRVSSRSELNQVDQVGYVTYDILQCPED

[6] = molecular target: Matrix metalloproteinase-14 (Homo sapiens, UniProt P50281); assay: Inhibition of MMP14 using Mca-Pro-cyclohexyl-Ala-Gly-Nva-His-Ala- Dap(Dnp)-NH2 as substrate by fluorometric analysis
[7] = molecular target: Macrophage metalloelastase (Homo sapiens, UniProt P39900); assay: Inhibition of MMP12 using Mca-Pro-cyclohexyl-Ala-Gly-Nva-His-Ala- Dap(Dnp)-NH2 as substrate by fluorometric analysis
Macrophage metalloelastase, sequence (P39900 whole entry): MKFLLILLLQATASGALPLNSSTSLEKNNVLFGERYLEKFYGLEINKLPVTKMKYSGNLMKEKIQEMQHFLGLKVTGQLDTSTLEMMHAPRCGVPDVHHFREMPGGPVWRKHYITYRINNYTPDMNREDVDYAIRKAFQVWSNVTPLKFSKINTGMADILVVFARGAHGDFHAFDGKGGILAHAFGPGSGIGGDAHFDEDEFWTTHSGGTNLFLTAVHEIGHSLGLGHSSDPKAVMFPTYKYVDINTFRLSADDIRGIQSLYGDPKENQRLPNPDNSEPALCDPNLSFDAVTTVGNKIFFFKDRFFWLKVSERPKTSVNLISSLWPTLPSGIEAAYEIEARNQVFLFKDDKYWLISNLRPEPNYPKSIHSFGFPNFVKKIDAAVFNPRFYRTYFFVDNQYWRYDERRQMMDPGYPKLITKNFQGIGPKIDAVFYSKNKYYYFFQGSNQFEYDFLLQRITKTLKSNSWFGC

[8] = molecular target: T1, A disintegrin and metalloproteinase with thrombospondin motifs 4 (Homo sapiens) (UniProt O75173); assay: Inhibition of ADAM-TS4 using dimethoxyfluorescein-Ser-Pro-Leu-Ala-Gln-Ala- Val-Arg-ser-Ser-Arg-Cys-fluorescein as substrate
T1 sequence (whole entry): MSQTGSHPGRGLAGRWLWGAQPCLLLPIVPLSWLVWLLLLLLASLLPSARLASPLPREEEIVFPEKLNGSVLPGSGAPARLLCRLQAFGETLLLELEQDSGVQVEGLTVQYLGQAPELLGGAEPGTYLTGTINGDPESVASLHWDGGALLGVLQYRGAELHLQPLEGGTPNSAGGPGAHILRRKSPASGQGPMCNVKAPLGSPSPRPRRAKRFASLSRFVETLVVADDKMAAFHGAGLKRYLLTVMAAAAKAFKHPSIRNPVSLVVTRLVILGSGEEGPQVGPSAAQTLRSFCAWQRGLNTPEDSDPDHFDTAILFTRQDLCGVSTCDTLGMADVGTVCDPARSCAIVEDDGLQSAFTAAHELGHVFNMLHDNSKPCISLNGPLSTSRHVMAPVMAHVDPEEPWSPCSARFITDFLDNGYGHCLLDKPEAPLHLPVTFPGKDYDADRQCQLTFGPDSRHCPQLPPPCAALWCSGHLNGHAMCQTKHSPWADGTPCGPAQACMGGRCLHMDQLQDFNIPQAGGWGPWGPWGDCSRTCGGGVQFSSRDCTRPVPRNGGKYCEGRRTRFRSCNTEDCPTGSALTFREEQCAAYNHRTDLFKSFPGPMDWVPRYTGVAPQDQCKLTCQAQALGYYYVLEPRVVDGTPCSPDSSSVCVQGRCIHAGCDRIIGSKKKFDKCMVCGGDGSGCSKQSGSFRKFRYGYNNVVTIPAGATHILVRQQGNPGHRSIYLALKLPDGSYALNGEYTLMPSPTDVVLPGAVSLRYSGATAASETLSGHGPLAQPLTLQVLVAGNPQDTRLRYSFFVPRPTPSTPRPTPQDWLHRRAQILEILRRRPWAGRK

[9] = molecular target: T2, A disintegrin and metalloproteinase with thrombospondin motifs 1 (Homo sapiens) (UniProt Q9UHI8); assay: Inhibition of ADAM-TS1 dimethoxyfluorescein-Ser-Pro-Leu-Ala-Gln-Ala- Val-Arg-ser-Ser-Arg-Cys-fluorescein
T2 sequence (whole entry): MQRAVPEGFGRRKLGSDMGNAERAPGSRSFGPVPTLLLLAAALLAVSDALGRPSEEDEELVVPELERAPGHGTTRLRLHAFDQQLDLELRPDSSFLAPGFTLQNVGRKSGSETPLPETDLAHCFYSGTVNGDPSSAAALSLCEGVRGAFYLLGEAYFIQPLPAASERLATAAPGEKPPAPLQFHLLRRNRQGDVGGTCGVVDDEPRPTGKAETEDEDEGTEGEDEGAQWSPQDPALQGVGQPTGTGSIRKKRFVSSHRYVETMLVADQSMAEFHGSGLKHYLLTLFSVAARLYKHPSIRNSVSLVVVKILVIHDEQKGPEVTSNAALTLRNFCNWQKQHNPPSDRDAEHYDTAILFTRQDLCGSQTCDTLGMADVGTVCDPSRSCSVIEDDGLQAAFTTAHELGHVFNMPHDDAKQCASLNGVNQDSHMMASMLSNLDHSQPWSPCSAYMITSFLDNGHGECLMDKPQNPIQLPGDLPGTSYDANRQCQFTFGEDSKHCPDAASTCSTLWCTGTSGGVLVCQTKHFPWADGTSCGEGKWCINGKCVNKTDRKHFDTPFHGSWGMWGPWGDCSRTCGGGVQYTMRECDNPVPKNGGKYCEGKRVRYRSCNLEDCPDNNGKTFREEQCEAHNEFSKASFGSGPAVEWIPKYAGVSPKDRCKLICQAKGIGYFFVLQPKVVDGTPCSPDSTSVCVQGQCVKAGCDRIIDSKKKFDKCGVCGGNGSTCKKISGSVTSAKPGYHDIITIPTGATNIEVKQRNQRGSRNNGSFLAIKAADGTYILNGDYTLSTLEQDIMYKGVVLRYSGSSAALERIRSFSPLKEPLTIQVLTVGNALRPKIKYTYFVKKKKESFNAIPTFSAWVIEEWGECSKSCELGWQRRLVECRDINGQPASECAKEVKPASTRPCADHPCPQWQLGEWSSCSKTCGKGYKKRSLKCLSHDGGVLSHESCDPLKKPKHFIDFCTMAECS

[10] = molecular target: T3, A disintegrin and metalloproteinase with thrombospondin motifs 5 (Homo sapiens) (UniProt Q9UNA0); assay: Inhibition of ADAM-TS5 using dimethoxyfluorescein-Ser-Pro-Leu-Ala-Gln-Ala- Val-Arg-ser-Ser-Arg-Cys-fluorescein as substrate
T3 sequence (whole entry): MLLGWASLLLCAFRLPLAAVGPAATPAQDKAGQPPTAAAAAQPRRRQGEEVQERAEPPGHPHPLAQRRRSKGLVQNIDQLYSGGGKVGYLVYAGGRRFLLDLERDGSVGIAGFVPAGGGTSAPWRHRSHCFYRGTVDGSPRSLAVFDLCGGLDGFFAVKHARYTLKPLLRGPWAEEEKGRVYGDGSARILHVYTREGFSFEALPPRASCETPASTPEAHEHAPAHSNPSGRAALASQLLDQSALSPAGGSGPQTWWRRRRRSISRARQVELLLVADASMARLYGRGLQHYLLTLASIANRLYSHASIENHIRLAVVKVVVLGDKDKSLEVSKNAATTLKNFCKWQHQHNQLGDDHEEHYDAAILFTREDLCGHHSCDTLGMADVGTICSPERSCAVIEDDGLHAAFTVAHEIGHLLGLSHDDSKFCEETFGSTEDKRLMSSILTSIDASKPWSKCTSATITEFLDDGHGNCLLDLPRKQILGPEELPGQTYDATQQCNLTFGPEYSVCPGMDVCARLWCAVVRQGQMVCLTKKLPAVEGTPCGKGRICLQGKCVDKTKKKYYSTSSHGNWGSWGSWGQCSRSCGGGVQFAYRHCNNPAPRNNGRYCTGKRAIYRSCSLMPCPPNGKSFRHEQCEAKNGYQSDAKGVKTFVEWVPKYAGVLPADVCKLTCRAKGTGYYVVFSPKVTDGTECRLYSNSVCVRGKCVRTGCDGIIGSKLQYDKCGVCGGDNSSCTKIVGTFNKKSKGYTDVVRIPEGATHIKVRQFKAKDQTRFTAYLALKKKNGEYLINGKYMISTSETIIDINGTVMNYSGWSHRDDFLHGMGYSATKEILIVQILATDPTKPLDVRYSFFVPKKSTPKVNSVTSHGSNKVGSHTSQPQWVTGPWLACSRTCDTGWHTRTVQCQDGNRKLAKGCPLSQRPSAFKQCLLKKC

[11] = Fraction unbound in human; assay type: ADME, organism-based; conditions: in vivo
[12] = Lipophilicity, log D of the compound; conditions: octanol/water
Cytochrome P450 3A4 = Cytochrome P450 3A4 (Homo sapiens, UniProt P08684); assay: Inhibition of CYP3A4; assay type: ADME; conditions: read-out: pIC50 (converted)
Cytochrome P450 3A4, sequence (P08684 whole entry): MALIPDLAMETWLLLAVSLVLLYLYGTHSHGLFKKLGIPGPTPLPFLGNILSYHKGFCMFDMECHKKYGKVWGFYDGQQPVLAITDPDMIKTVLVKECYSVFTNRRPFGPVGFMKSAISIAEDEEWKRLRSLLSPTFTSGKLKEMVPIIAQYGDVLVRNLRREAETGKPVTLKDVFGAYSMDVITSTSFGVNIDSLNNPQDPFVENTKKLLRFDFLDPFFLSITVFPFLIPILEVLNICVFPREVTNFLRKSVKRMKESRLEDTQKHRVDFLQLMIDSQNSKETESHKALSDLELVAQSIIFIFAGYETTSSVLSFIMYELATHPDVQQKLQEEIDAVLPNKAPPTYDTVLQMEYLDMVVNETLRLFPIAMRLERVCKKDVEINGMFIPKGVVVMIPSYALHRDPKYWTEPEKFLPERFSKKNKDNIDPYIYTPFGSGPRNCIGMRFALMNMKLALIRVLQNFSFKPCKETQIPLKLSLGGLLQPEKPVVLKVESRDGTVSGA

[13] = Apparent permeability across basolateral to apical side in human Caco2 cells at 10 uM; assay type: ADME, cell-based; conditions: Caco-2
[14] = as §1; assay type: ADME, organism-based; conditions: in vivo
Cytochrome P450 2C9 = Cytochrome P450 2C9 (Homo sapiens, UniProt P11712); assay: Inhibition of CYP2C9; assay type: ADME; conditions: read-out: pIC50 (converted)
Cytochrome P450 2C9, sequence (P11712 whole entry): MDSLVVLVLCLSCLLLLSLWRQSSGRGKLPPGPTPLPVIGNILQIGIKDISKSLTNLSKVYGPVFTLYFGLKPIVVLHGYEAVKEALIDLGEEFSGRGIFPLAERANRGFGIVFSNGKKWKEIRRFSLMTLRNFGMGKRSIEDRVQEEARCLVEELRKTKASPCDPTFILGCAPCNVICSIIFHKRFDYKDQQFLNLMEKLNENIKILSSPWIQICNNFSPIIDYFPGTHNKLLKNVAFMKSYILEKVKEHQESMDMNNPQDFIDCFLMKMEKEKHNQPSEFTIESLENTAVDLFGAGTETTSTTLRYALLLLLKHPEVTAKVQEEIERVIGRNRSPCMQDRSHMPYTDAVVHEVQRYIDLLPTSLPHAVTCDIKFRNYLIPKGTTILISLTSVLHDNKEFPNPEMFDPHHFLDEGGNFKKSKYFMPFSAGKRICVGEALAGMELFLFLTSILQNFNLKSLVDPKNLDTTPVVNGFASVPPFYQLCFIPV

Cytochrome P450 1A2 = molecular target: T4, Cytochrome P450 1A2 (Homo sapiens, UniProt P05177); assay: Inhibition of CYP1A2; assay type: ADME
T4 sequence (P05177 whole entry): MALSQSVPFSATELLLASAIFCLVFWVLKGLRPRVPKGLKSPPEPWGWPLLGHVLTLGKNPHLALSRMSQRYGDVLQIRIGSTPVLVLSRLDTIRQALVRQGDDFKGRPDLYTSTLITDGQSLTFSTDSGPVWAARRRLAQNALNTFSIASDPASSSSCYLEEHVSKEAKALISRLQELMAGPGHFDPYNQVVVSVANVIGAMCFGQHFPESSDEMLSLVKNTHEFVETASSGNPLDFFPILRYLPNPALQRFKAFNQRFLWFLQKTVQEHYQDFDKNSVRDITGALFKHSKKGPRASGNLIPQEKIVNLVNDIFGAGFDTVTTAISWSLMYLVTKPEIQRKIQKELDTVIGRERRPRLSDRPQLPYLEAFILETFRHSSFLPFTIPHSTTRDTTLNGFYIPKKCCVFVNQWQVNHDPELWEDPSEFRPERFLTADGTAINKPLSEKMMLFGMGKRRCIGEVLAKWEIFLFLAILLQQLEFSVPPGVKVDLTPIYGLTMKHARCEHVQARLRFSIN

[15] = Apparent permeability across apical to basolateral side in human Caco2 cells at 10 uM; assay type: ADME, cell-based; conditions: Caco-2
[16] = Fraction unbound in rat; assay type: ADME, organism-based; conditions: in vivo
Cytochrome P450 2D6 = Cytochrome P450 2D6 (Homo sapiens, UniProt P10635); assay: Inhibition of CYP2D6; assay type: ADME; conditions: read-out: pIC50 (converted)
Cytochrome P450 2D6, sequence (P10635 whole entry): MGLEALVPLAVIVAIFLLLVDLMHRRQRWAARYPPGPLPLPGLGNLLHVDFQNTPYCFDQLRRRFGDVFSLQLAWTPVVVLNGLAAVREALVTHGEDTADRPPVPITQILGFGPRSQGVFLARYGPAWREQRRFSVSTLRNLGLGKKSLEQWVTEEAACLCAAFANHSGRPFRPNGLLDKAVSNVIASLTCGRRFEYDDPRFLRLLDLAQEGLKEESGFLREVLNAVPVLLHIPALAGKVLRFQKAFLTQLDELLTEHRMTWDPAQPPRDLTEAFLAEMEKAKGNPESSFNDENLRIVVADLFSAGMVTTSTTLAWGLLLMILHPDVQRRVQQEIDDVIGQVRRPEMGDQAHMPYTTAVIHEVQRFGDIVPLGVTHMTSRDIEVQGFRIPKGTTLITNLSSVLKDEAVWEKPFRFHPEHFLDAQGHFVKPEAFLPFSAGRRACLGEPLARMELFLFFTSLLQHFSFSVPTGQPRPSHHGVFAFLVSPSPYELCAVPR

Cytochrome P450 2C19 = Cytochrome P450 2C19 (Homo sapiens, UniProt P33261); assay: Inhibition of CYP2C19; assay type: ADME; conditions: read-out: pIC50 (converted)
Cytochrome P450 2C19, sequence (P33261 whole entry): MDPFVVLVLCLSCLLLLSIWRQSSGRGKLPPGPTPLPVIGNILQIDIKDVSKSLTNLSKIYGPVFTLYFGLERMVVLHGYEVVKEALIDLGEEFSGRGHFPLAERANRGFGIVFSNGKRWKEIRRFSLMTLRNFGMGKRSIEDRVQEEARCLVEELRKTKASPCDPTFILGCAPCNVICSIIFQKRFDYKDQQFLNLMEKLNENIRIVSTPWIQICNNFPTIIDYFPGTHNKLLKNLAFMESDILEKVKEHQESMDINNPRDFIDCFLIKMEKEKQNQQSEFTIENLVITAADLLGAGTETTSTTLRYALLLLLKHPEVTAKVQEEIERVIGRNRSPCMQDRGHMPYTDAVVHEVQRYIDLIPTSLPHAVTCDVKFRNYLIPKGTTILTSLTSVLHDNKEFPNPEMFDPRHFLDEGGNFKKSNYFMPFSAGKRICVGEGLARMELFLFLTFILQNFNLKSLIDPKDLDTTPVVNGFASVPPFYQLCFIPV

[17] = Half life in rat at 2 mg/kg, iv; assay type: ADME, organism-based; parameters: dose 2 mg/kg, route intravenous; conditions: in vivo
[18] = Volume of distribution at steady state in rat at 2 mg/kg, iv; assay type: ADME, organism-based; parameters: dose 2 mg/kg, route intravenous; conditions: in vivo, read-out: Vdss
[19] = Clearance in rat at 2 mg/kg, iv; assay type: ADME, organism-based; parameters: dose 2 mg/kg, route intravenous; conditions: in vivo
[20] = Oral bioavailability in rat at 2 to 50 mg/kg; assay type: ADME, organism-based; conditions: in vivo

72 kDa type IV collagenase, sequence (P08253 whole entry): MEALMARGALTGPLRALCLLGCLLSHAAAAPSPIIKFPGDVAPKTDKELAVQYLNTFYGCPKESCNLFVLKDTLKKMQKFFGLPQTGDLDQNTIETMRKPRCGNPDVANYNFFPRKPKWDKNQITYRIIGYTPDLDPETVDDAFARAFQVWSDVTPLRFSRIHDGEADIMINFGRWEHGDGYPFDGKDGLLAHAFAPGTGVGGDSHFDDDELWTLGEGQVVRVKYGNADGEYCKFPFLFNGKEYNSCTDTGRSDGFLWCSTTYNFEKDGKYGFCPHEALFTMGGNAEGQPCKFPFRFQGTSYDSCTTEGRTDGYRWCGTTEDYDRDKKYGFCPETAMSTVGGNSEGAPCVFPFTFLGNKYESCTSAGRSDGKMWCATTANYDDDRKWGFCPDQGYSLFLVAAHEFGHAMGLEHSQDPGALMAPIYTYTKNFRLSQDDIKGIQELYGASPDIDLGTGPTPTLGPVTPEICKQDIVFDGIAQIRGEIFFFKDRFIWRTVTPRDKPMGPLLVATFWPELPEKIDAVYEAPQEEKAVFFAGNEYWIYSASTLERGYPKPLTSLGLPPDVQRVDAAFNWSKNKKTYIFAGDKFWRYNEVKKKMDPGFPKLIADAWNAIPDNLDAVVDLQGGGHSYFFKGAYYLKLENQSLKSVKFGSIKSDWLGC

O=C(NC1CCCS(=O)(=O)C1)c1ccc(Oc2ccc(C#C[C@]3(O)CN4CCC3CC4)cc2)cc1 (single isomer, unassigned; diastereomer 2)
IC50 [1]: 2.51 µM
microsomal CLint [2]: < 2 µL/min/mg
F (Rattus norvegicus): 0%
solubility thermodynamic [3]: 120 µM (≈ 59.4 µg/mL)
IC50 (Collagenase 3): 10 nM
hepatocyte CLint [4]: 3.4 µL/min/1e6 cells
pIC50 [5]: < 5
pIC50 [6]: < 5
pIC50 [7]: < 5

O=C(NC1CCCS(=O)(=O)C1)c1ccc(Oc2ccc(C#C[C@]3(O)CN4CCC3CC4)cc2)cc1 (single isomer, unassigned; diastereomer 1)
INH [8]: > 10 µM
INH [9]: > 100 µM
INH [10]: > 10 µM

CNC(=O)c1ccc(Oc2ccc(C#C[C@]3(O)CN4CCC3CC4)cc2)cc1
fraction unbound [11]: 0.24
IC50 [1]: 20 µM
logD [12]: 2
IC50 (Cytochrome P450 3A4): > 10 µM
microsomal CLint [2]: 3.9 µL/min/mg
Papp B→A at 10 µM [13]: 34 ×10⁻⁶ cm/s
bioavailability [14]: 54%
IC50 (Cytochrome P450 2C9): > 10 µM
solubility thermodynamic [3]: > 1600 µM
IC50 (Cytochrome P450 1A2): > 10 µM
Papp A→B at 10 µM [15]: 23 ×10⁻⁶ cm/s
fraction unbound [16]: 0.26
IC50 (Collagenase 3): 200 nM
IC50 (Cytochrome P450 2D6): > 10 µM
hepatocyte CLint [4]: 2.7 µL/min/1e6 cells
IC50 ([5]; read-out: pIC50 (converted)): > 100 µM
IC50 ([6]; read-out: pIC50 (converted)): > 100 µM
IC50 (Cytochrome P450 2C19): > 10 µM
half-life [17]: 114 min
Vd [18]: 2.4 L/kg
clearance [19]: 16 mL/min/kg
IC50 ([7]; read-out: pIC50 (converted)): > 100 µM

O=C(NCc1ccncn1)c1ccc(Oc2ccc(C#C[C@]3(O)CN4CCC3CC4)cc2)cc1
logD [12]: 1.8
Papp B→A at 10 µM [13]: 33 ×10⁻⁶ cm/s
Papp A→B at 10 µM [15]: 6.7 ×10⁻⁶ cm/s
hepatocyte CLint [4]: 3.2 µL/min/1e6 cells
bioavailability [20]: 2%
